Data: PubChem BioAssay (NCI)
Values joined by “and” are separate entries in the source; they are usually repeats but may differ in a detail not shown here. Equal values may be shown once.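 Method: 48-hour compound exposure of cells in 96-well plates, five concentrations, linear interpolation of endpoints. Abbreviation: GI50, concentration required for 50% inhibition of growth. TGI denotes the concentration required for complete inhibition of growth.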

How the values were obtained:
Test in all cases: inhibition of tumour cell growth, NCI panel, 48 h
[1] = test system: ACHN renal
[2] = test system: CAKI-1 renal
[3] = test system: DU-145 prostate
[4] = test system: HCT-116 colon
[5] = test system: MCF7 breast
[6] = test system: MDA-MB-231 breast
[7] = test system: NCI-H23 lung
[8] = test system: NCI-H522 lung
[9] = test system: NCI/ADR-RES ovarian
[10] = test system: UACC-257 melanoma

Row | Compound | TGI [1] | TGI [2] | TGI [3] | TGI [4] | TGI [5] | TGI [6] | TGI [7] | TGI [8] | TGI [9] | TGI [10] | GI50 [1] | GI50 [2] | GI50 [3] | GI50 [4] | GI50 [5] | GI50 [6] | GI50 [7] | GI50 [8] | GI50 [9] | GI50 [10]
1 | C[C@]12CC[C@@H]3c4ccc(O)cc4CC[C@H]3[C@@H]1C/C(=C\c1ccc(C#N)cc1)C2=O | > 100 µM | > 100 µM | > 100 µM | > 100 µM | > 100 µM | > 100 µM | > 100 µM | 41.6 µM | > 100 µM | > 100 µM |  |  |  |  |  |  |  |  |  | 
2 | CC1(C)OC2COC3([C@@H]4OC(C)(C)O[C@@H]4CO)OC(C)(C)OC3C2O1 (some centres not stated) | > 100 µM | > 100 µM | > 100 µM | > 100 µM | > 100 µM | > 100 µM | > 100 µM |  | > 100 µM | > 100 µM |  |  |  |  |  |  |  |  |  | 
3 | CON(C)C(=O)C1CCCO1 (configuration not stated) | > 100 µM | > 100 µM | > 100 µM | > 100 µM | > 100 µM | > 100 µM | > 100 µM | > 100 µM | > 100 µM | > 100 µM |  |  |  |  |  |  |  |  |  | 
4 | O=c1c2ccccc2sc2ccccc12 | > 100 µM | > 100 µM | > 100 µM | > 100 µM | > 100 µM | > 100 µM | > 100 µM | > 100 µM | > 100 µM | > 100 µM |  |  |  |  |  |  |  |  |  | 
5 | CCOC(=O)c1ccc(Nc2nc3ccc(C(F)(F)F)cc3nc2C(=O)OCC)cc1 | > 100 µM | > 100 µM | > 100 µM | > 100 µM | > 100 µM | > 100 µM | > 100 µM | > 100 µM | > 100 µM | > 100 µM |  |  |  |  |  |  |  |  |  | 
6 | CC1(C)CC(C#Cc2ccccc2)CC(C)(C)N1O | > 100 µM | 61.3 µM | 41.9 µM | 43.5 µM | 36.3 µM | 29.8 µM | 35.2 µM |  | 73.8 µM | 33 µM |  |  |  |  |  |  |  |  |  | 
7 | COc1cc(C(O)c2ccc3c(c2)OCO3)cc(OC)c1OC (configuration not stated) | > 100 µM | > 100 µM | > 100 µM | > 100 µM | > 100 µM | > 100 µM | > 100 µM | > 100 µM | > 100 µM | > 100 µM |  |  |  |  |  |  |  |  |  | 
8 | CCOC(=O)c1sc2ncnc(N)c2c1C | > 100 µM | > 100 µM | > 100 µM | > 100 µM | > 100 µM | > 100 µM | > 100 µM | > 100 µM | > 100 µM | > 100 µM |  |  |  |  |  |  |  |  |  | 
9 | CC(C)/C(Cl)=N/OC(=O)Nc1ccc(OC(F)(F)F)cc1 | 25.1 µM | 9.55 µM | 31.5 µM | 18 µM | 28 µM | 32.5 µM | 30.9 µM | 2.81 µM | 33.6 µM | 26.6 µM |  |  |  |  |  |  |  |  |  | 
10 | COc1ccc(-n2nc(C)c3c(Nc4ccc(NC(=O)Nc5ccc(Cl)c(C(F)(F)F)c5)cc4)ncnc32)cc1 | 6.86 µM | 3.51 µM | > 100 µM | 3.35 µM | 6.03 µM | 3.32 µM | 3.95 µM | 3.65 µM | 6.22 µM | 4.66 µM | 1.64 µM | 1.51 µM | 3.33 µM | 1.21 µM | 2.12 µM | 1.47 µM | 1.69 µM | 1.71 µM | 1.78 µM | 1.88 µM
11 | CN(C)c1cccc2c1C(=O)C=CC21c2ccc(N(C)C)c3c(N(C)C)ccc(c23)C(c2ccccc2)C1c1ccccc1 (configuration not stated) | 26.6 µM | 17.2 µM | > 100 µM | 52.6 µM | 36.9 µM | 28.9 µM | 75.3 µM | 47.7 µM | 58.9 µM | 27.2 µM |  |  |  |  |  |  |  |  |  | 
12 | O=S1(=O)C[C@@H](NCc2ccccc2)[C@H](NCc2ccccc2)C1 | > 100 µM | > 100 µM | > 100 µM | > 100 µM | > 100 µM | > 100 µM | > 100 µM | > 100 µM | > 100 µM | > 100 µM |  |  |  |  |  |  |  |  |  | 
13 | C=CCN1C(=O)/C(=C/c2ccc(C)cc2)N=C1SC1OC(COC(C)=O)C(OC(C)=O)C(OC(C)=O)C1OC(C)=O (configuration not stated) | > 100 µM | > 100 µM and 63.4 µM | > 100 µM | > 100 µM | > 100 µM | > 100 µM | > 100 µM | > 100 µM | > 100 µM | > 100 µM | > 27.6 µM and 67.3 µM | 4.88 µM and 11.2 µM |  |  |  |  | > 100 µM and 27.1 µM | 6.85 µM | > 100 µM and 32.5 µM | > 73 µM and 32.9 µM
14 | O=C1/C(=C/c2cccc([N+](=O)[O-])c2)Sc2scc(-c3ccc([N+](=O)[O-])cc3)[n+]21 | 49.9 µM | 51.5 µM | > 100 µM | 34.9 µM | > 100 µM | 72.5 µM | 35.5 µM |  | 89.2 µM | 69.8 µM |  |  |  |  |  |  |  |  |  | 
15 | CCOC(=O)NC(Nc1c(F)c(F)c(F)c(F)c1F)(C(F)(F)F)C(F)(F)F | > 100 µM | > 100 µM | > 100 µM | > 100 µM | > 100 µM | > 100 µM | > 100 µM | > 100 µM | > 100 µM | > 100 µM |  |  |  |  |  |  |  |  |  | 
16 | COc1ccc2c(c1)c(=O)c1c(NCCNCCO)ccc3c(=O)n(CCN(C)C)c(=O)n2c31 | 1.49 µM | 2.79 µM | 0.31 µM | 0.348 µM | 3.54 µM | 0.508 µM | 0.271 µM | 0.0868 µM | 15 µM | 1.06 µM |  |  |  |  |  |  |  |  |  | 
17 | CC(C)[Si](OC/C(=C/COC(C)(C)C)[C@H]1CC=C(C(=O)c2ccccc2N2CN(C)C(=O)N(C)C2)C1)(C(C)C)C(C)C | 28.6 µM | 23.5 µM | 29.9 µM | 4.97 µM | 15.1 µM | 26.6 µM | 30 µM | 19.7 µM | 32.7 µM | 23.9 µM |  |  |  |  |  |  |  |  |  | 
18 | CN(C)c1ccc(Cc2cc3c(O)ccc(O)c3cc(Cc3ccc(N(C)C)cc3)c2=O)cc1 | 25.3 µM | 20.5 µM | > 60 µM | 40.8 µM | 58.6 µM | 63.5 µM | 53.9 µM | 32.5 µM | > 81.8 µM | 48.9 µM |  |  |  |  |  |  |  |  |  | 
19 | C=CC(=O)N1C/C(=C\c2ccc(Cl)cc2)C(=O)/C(=C/c2ccc(Cl)cc2)C1 | 1.02 µM | 1.32 µM | 3.66 µM | 0.257 µM | 0.845 µM | 1.2 µM | 2.15 µM |  | 9.41 µM | 3.65 µM |  |  |  |  |  |  |  |  |  | 
